Laboratory results taken from the OPERA property sets (Mansouri et al. 2018).

Settings: not given

SMILES | melting point | ready biodegradability | boiling point | log10 Henry constant (atm·m³/mol) | log10 Koc (L/kg) | log10 biodegradation half-life (days) | log10 vapour pressure (mmHg) | log10 Koa
C[C@]12CCC(=O)C=C1C=C[C@@H]1[C@@H]2CC[C@@]2(C)[C@H]1CC[C@@]21CCC(=O)O1 | 150 °C |  |  |  |  |  |  | 
O=C(ON=C1C=CC(=NOC(=O)c2ccccc2)C=C1)c1ccccc1 |  | not readily biodegradable |  |  |  |  |  | 
Nc1ncnc2c1ncn2[C@@H]1O[C@H](CO)[C@@H](OP(=O)(O)O)[C@H]1O | 197 °C |  |  |  |  |  |  | 
Cc1cc(C(=O)NNCc2ccccc2)no1 | 106 °C |  |  |  |  |  |  | 
CCC1(C2=C[C@H]3CC[C@@H](C2)C3)C(=O)NC(=O)NC1=O | 213 °C |  |  |  |  |  |  | 
c1ccc2c(c1)cc1ccc3cccc4ccc2c1c34 | 176 °C |  | 495 °C | -6.34 | 5.95 | 2.35 | -8.26 | 
CCCOc1ccccc1O |  |  | 227 °C |  |  |  |  | 
N#Cc1c[nH]cc1-c1cccc(Cl)c1Cl | 147 °C |  |  |  |  |  | -7.08 | 
CC(=O)c1cc(C)ccc1C | -18.1 °C |  | 232 °C |  |  |  |  | 
CCCCOc1ccc(C)cc1 |  |  | 230 °C |  |  |  |  | 
CCn1cc(C(=O)O)c(=O)c2ccc(-c3ccncc3)cc21 | 290 °C |  |  |  |  |  |  | 
ClCc1cccc(CCl)c1 | 34.2 °C |  | 252 °C |  |  |  |  | 
Clc1cc2oc3c(Cl)c(Cl)ccc3c2c(Cl)c1Cl | 206 °C |  |  |  |  |  | -8.65 | 
COc1ccc(Cc2cnc(N)nc2N)cc1OC | 233 °C |  |  |  |  |  |  | 
O=C(O)CCCc1c[nH]c2ccccc12 | 124 °C |  |  |  |  |  |  | 
CC(c1ccccc1)C(C)(C)O (centres undefined) | 46 °C |  | 197 °C |  |  |  |  | 
COc1ccc(/C=N/NC(=O)c2ccncc2)cc1OC | 189 °C |  |  |  |  |  |  | 
O=C1NC(=O)C2CC=CCC12 (centres undefined) |  | not readily biodegradable |  |  |  |  |  | 
Nc1ccc2cc3ccccc3cc2c1 | 239 °C |  |  |  | 4.45 |  |  | 
CCc1ccc(C(=O)O)cc1 | 112 °C |  |  |  |  |  |  | 
C[C@@H](N)C(=O)O | 292 °C |  |  |  |  |  |  | 
CC[C@H]1OC(=O)[C@H](C)C(=O)[C@H](C)[C@@H](O[C@@H]2O[C@H](C)C[C@H](N(C)C)[C@H]2O)[C@@H](C)C[C@@H](C)C(=O)C=C[C@]1(C)O | 170 °C |  |  |  |  |  |  | 
O=C(Cl)C(F)(F)C(F)(F)C(F)(F)C(F)(F)C(F)(F)C(F)(F)C(F)(F)F |  |  | 131 °C |  |  |  |  | 
COc1ccc(C(C)(C)C)cc1 |  |  | 238 °C |  |  |  |  | 
O=C(OC(=O)c1ccccc1)c1ccccc1 | 42.5 °C |  | 360 °C |  |  |  | -3.93 | 
CC(CCC(=O)O)n1nnc2ccccc21 (centres undefined) | 86 °C |  |  |  |  |  |  | 

SMILES | melting point | ready biodegradability | boiling point | log10 Henry constant (atm·m³/mol) | log10 Koc (L/kg) | log10 biodegradation half-life (days) | log10 vapour pressure (mmHg) | log10 Koa
COc1cccc(Cl)c1 |  |  | 194 °C |  |  |  |  | 
C#CCCCCCCCC#C | -17 °C |  |  |  |  |  |  | 
OCC(O)c1ccccc1 (centres undefined) | 67.5 °C |  | 273 °C |  |  |  |  | 
CCCc1ccc(N)cc1 |  |  | 225 °C |  |  |  |  | 
CCCCC(CC)COC(=O)CCCCC(=O)OCC(CC)CCCC (centres undefined) | -67.8 °C | readily biodegradable | 417 °C | -6.36 | 4.19 |  | -6.07 | 
Cc1cc(O)c(C(C)(C)C)cc1C(C)CC(c1cc(C(C)(C)C)c(O)cc1C)c1cc(C(C)(C)C)c(O)cc1C (centres undefined) | 186 °C |  |  |  |  |  |  | 
CCOC(=O)C(C)[N+](=O)[O-] (centres undefined) |  |  | 190 °C |  |  |  |  | 
C[C@@H]1C[C@H]2CC[C@H](O2)[C@H](C)C(=O)O[C@@H](C)C[C@@H]2CC[C@@H](O2)[C@@H](C)C(=O)O[C@H](C)C[C@H]2CC[C@H](O2)[C@H](C)C(=O)O[C@@H](C)C[C@@H]2CC[C@@H](O2)[C@@H](C)C(=O)O1 | 148 °C |  |  |  |  |  |  | 
SCCCCCCCCS |  |  | 270 °C |  |  |  |  | 
CCOC(=O)NC(C)(C)Cc1ccc(Cl)cc1 | 52.8 °C |  |  |  |  |  |  | 
COCC(COC)OC |  |  | 148 °C |  |  |  |  | 
NC(=O)C(Cl)(Cl)Cl | 142 °C |  | 240 °C |  | 0.99 |  |  | 
C=C(Br)Br |  |  | 92 °C |  |  |  |  | 
O=C(O)c1ccc(O)cc1 | 214 °C | readily biodegradable |  |  | 1.43 |  | -6.72 | 8.08
CC(=O)c1cccc(C)c1 |  |  | 220 °C |  |  |  |  | 
Cc1cc(O)c2c(O)c3c(O)cccc3cc2c1 | 204 °C |  |  |  |  |  |  | 
O=C(O)/C=C/CCl | 83 °C |  |  |  |  |  |  | 
NC(=O)c1ccc(F)cc1 | 156 °C |  |  |  |  |  |  | 
CCSCCSP(=O)(OC)OC |  |  |  |  | 1.49 |  | -3.52 | 
COCCCN |  | not readily biodegradable | 118 °C |  |  |  |  | 
COC(=O)CCCCC(=O)OC | 10.3 °C |  |  |  |  |  | -1.22 | 
CC(C)CC(N)=O | 137 °C |  | 226 °C |  |  |  |  | 
Cc1ccc2c(ccc3ccccc32)c1 | 58 °C |  |  |  |  | 1.36 |  | 
Cc1ccc(C(=O)O)cc1C | 165 °C |  |  |  |  |  |  | 
CN(C)S(=O)N(C)C | 31 °C |  | 209 °C |  |  |  |  | 
C#C[C@]1(O)CC[C@H]2[C@@H]3[C@H](C)CC4=C(CCC(=O)C4)[C@H]3CC[C@@]21C | 167 °C |  |  |  |  |  |  | 

SMILES | melting point | ready biodegradability | boiling point | log10 Henry constant (atm·m³/mol) | log10 Koc (L/kg) | log10 biodegradation half-life (days) | log10 vapour pressure (mmHg) | log10 Koa
OC(CCCN1CCCCC1)(c1ccccc1)c1ccccc1 | 104 °C |  |  |  |  |  |  | 
CN1c2ccccc2Sc2ccc(CC(=O)O)cc21 | 144 °C |  |  |  |  |  |  | 
CC(I)I |  |  | 180 °C |  |  |  |  | 
CCCCCC(C)O (centres undefined) |  |  | 159 °C |  |  |  | 0.0899 | 
NC(=O)c1ccccc1F | 118 °C |  |  |  |  |  |  | 
CC(C)(C)N | -72.7 °C | not readily biodegradable | 45 °C |  |  |  | 2.57 | 
Cc1ccc(C)c(C)c1 | -43.8 °C | not readily biodegradable | 169 °C | -2.21 |  | 0.602 | 0.322 | 
Cc1ccc(O)cn1 | 169 °C |  |  |  |  |  |  | 
BrC(Br)c1ccccc1OCC1CO1 (centres undefined) |  | not readily biodegradable |  |  |  |  |  | 
C=CCCCCCCCCCC | -35.2 °C |  | 214 °C |  |  |  | -0.797 | 
N#CC#N | -27.9 °C |  |  |  |  |  | 3.63 | 
CC[Si](F)(F)CC | -78.7 °C |  | 61 °C |  |  |  |  | 
C=Cc1c(C)cc(C)cc1C | -37 °C |  | 209 °C |  |  |  |  | 
c1ccc(OB(Oc2ccccc2)Oc2ccccc2)cc1 | 99.5 °C |  |  |  |  |  |  | 
CCOC(=O)c1c(C)cc(O)cc1O | 132 °C |  |  |  |  |  |  | 
C[C@H]1[C@H]2CC[C@H]3[C@@H]4CC=C5C[C@@H](N(C)C)CC[C@]5(C)[C@H]4CC[C@]23CN1C | 126 °C |  |  |  |  |  |  | 
COc1ccc(C[C@H]2NC[C@H](O)[C@H]2OC(C)=O)cc1 | 140 °C |  |  |  |  |  |  | 
O=[N+]([O-])c1cccc2cccc([N+](=O)[O-])c12 | 173 °C |  |  |  |  |  |  | 
Oc1c(Br)cc(Br)c2cccnc12 | 196 °C |  |  |  |  |  |  | 
CCN(CC)N=O |  | not readily biodegradable | 177 °C | -5.44 |  |  | -0.0655 | 
O=C(O)c1cccc(O)c1O | 204 °C |  |  |  |  |  |  | 
CCNC(N)=S | 112 °C |  |  |  |  |  |  | 
CCCCCC(=O)c1ccccc1 | 27 °C |  | 265 °C |  |  |  |  | 
Cc1c(N(C)C)c(=O)n(-c2ccccc2)n1C | 134 °C |  |  |  |  |  |  | 
CCCCCC(C)(C)C | -113 °C |  | 133 °C |  |  | 0.778 | 1.03 | 
CC(C)Nc1nc(Cl)nc(NC(C)C)n1 | 213 °C | not readily biodegradable |  |  | 2.4 |  | -6.88 | 

SMILES | melting point | ready biodegradability | boiling point | log10 Henry constant (atm·m³/mol) | log10 Koc (L/kg) | log10 biodegradation half-life (days) | log10 vapour pressure (mmHg) | log10 Koa
CCOC(=O)CCCCCBr | 33 °C |  |  |  |  |  |  | 
CON(C)C(=O)Nc1ccc(Br)c(Cl)c1 | 96 °C |  |  |  | 2.7 |  | -6.4 | 
CC(=O)CC(C)C(C)=O (centres undefined) |  |  | 196 °C |  |  |  |  | 
Oc1cc(Cl)c(Br)cc1Cl |  | not readily biodegradable |  |  |  |  |  | 
CCSC(=O)N1CCCCCC1 |  |  |  | -5.39 | 1.92 |  | -2.25 | 
ICC(CI)(CI)CI | 225 °C |  |  |  |  |  |  | 
C=CCOC(=O)C(=C)C |  | readily biodegradable |  |  |  |  | 0.761 | 
BrC/C=C/CBr | 53.4 °C |  | 203 °C |  |  |  |  | 
O=C(O)CC(Br)C(=O)O (centres undefined) | 161 °C |  |  |  |  |  |  | 
O=C1CCCC(=O)C1 | 106 °C |  |  |  |  |  |  | 
COc1c(Cl)cc(Cl)cc1Cl | 61.5 °C |  | 241 °C |  |  |  |  | 
OCC(S)CS (centres undefined) |  |  |  |  |  |  | -2.3 | 
N#Cc1ccc([N+](=O)[O-])cc1 | 148 °C |  |  |  |  |  |  | 
Cc1cn(C)c2ccccc12 | 142 °C |  | 258 °C |  |  |  |  | 
C[C@]12C[C@@H](O)[C@H]3[C@@H](CC[C@]4(O)C[C@@H](O)C[C@@H](O)[C@]34CO)[C@@]1(O)CC[C@@H]2C1=CC(=O)OC1 | 236 °C |  |  |  |  |  |  | 
CS(=O)(=O)Nc1ccc([N+](=O)[O-])cc1Oc1ccccc1 | 144 °C |  |  |  |  |  |  | 
Cc1cc(Cl)n(C)n1 |  |  | 158 °C |  |  |  |  | 
N#CCCC#N | 54.5 °C |  | 266 °C |  |  |  | -2.11 | 
CC=C(C)C(C)(C)C |  |  | 112 °C |  |  |  |  | 
Oc1c(Cl)cccc1Cl | 68.5 °C | not readily biodegradable | 220 °C |  |  |  | -1.48 | 
CCOC(=O)CCCC(=O)OCC | -24.1 °C |  | 236 °C |  |  |  | -0.793 | 
CCCCCCCCCCCCCCCCCCCCCCO | 72.5 °C |  |  |  |  |  |  | 
CCOC(=O)C(C)(C)C(=O)OCC | -30.4 °C |  | 197 °C |  |  |  |  | 

Same assay, conditions: fish

SMILES | log10 biotransformation half-life (days) | log10 BCF
c1ccc2c(c1)cc1ccc3cccc4ccc2c1c34 | 0.05 | 
CCC(C)CCCC(C)CCCC(C)C (centres undefined) | 1.36 | 
Cc1ccc2c(ccc3ccccc32)c1 |  | 3.48
Clc1ccc(Cl)c2ccccc12 | 2.37 | 3.75
Cc1ccc(C)c(C)c1 | -0.31 | 2.08
C=CCCCCCCCCCC | 0.83 | 
CCSC(=O)N1CCCCCC1 | -1.08 | 1.41
COc1c(Cl)cc(Cl)cc1Cl |  | 2.86
Oc1c(Cl)cccc1Cl |  | 1.08
